Experimental data taken from patent US4200760A, “Imidazolylalkylthioalkylamino-ethylene derivatives” (Bristol-Myers Company, priority 1978, dated 1980).

Experiments:
[1] = target: T1, histamine H2-receptors (Cavia porcellus, UniProt P47747); test: Histamine H2-receptor antagonism, isolated guinea pig right atria assay; parameters: species or system guinea pig (male Hartley strain); details: for Histamine ED50 after test compound / Concentration-Response Curve Displacement Factor: test compound 3 × 10^-5 M; for Histamine ED50 after test compound: 30 minute incubation; for Concentration-Response Curve Displacement Factor: shift of histamine curve to the right
T1 construct: The spontaneously beating right atrium was dissected free from other tissues; from tissue; host or cells: isolated spontaneously beating right atrium, male Hartley guinea pig
Experimental: Subsequent investigations by Hughes and Coret, Proc. Soc. […] Black et al., Agents and Actions, 3, 133 (1973) and Brimblecombe et al., Fed. […] The present comparative studies were carried out using a modification of the procedure reported by Reinhardt et al., Agents and Actions, 4, 217 (1974).
Male Hartley strain guinea pigs (350-450 gm.) were sacrificed by a blow on the head. The heart was excised and placed in a Petri dish of oxygenated (95% O2, 5% CO2) modified Krebs solution (g./liter: NaCl 6.6, KCl 0.35, MgSO4.7 H2 O 0.295, KH2 PO4 0.162, CaCl2 0.238, NaHCO3 2.1 and dextrose 2.09). The spontaneously beating right atrium was dissected free from other tissues and a silk thread (4-O) attached to each end. The atrium was suspended in a 20 ml. muscle chamber containing oxygenated modified Krebs solution maintained at 32° C. Atrial contractions were recorded isometrically by means of a Grass FT 0.03 force displacement transducer and recordings of contractile force and rate were made with a Beckman RP Dynograph.
A resting tension of 1 g. was applied to the atrium and it was allowed to equilibrate for 1 hour.
Concentration-response curve displacement factors were calculated as follows: [formula] […] [formula]

[2] = system: gastric acid output; test: Gastric antisecretory activity in the two hour pylorus ligated (Shay) rat; format: in vivo, rat (male Long Evans); details: for ED50: 2 h, read-out: ED50 (acid output); for Potency Ratio: relative to cimetidine
Source text: The pyloric ligation procedure in the rat was designed by Shay et al., Gastroenterology, 5, 53 (1945) for the study of perforating gastric ulcers; however, as the method became known, it was also employed as a means of studying rat gastric secretion, Shay et al., Gastroenterology, 26, 906 (1954), Brodie, D. A., Am. J. Dig. Dis., 11, 231 (1966). A modification of this procedure is presently used to evaluate compounds for gastric antisecretory activity.
Male Long Evans rats, 280-300 gm., are used. The animals are placed in individual cages and fasted for 24 hours with free access to water. Under ether anesthesia, the stomach is reached through a midline incision, and a cotton-thread ligature is placed around the pylorus. […] All compounds are solubilized with one equivalent of HCl and brought to the proper volume with water. The animals are returned to their cages from which the water bottles have been removed and two hours later are sacrificed with ether. The stomach is removed and the two hour gastric collection is drained into a graduated test tube for volume determination. Titratable acidity is measured by titrating a one ml. sample to pH 7.0 with 0.02 N NaOH, using an Autoburet and an electrometric pH meter (Radiometer). Titratable acid output is calculated in microequivalents by multiplying the volume in milliliters by the acid concentration in milliequivalents per liter. The percent inhibition of acid output is calculated as follows: [formula]

[3] = system: gastric acid output; test: Gastric antisecretory activity in the gastric fistula dog (histamine-induced gastric acid output); format: in vivo, dog (beagle); details: for ED50: Canis lupus familiaris, read-out: ED50 (acid output); for Potency Ratio: relative to cimetidine
Experimental: Thomas type [Thomas, J. E., Proc. Soc. exp. Biol. Med., 46, 260 (1941)] stainless steel cannulae are inserted into the stomachs of beagle dogs (10-12 kg.) just orad to the pyloric gland area near the greater curvature to provide a chronic gastric fistula. Animals are allowed to recover for at least two months before any testing is done. Dogs are fasted overnight (~18 hours) with water ad lib prior to each experiment. The dogs are placed in a sling and an eight inch inside needle catheter (C. R. Baird, Inc.) with a two inch 17 gauge needle is inserted into a leg vein for purposes of drug administration. Gastric secretions are collected every 15 minutes by gravity drainage from the opened cannula. […] A modification of the procedure described by Grossman and Konturek, Gastroenterology, 66, 517 (1974) was followed. […] Each 15 minute sample of gastric juice is measured to the nearest 0.5 ml. and titratable acidity against 0.02 N NaOH (endpoint pH 7.0) is measured with an Autoburet and pH meter (radiometer).The percent inhibition of acid output is calculated as described in the pylorus ligated rat procedure.

[4] = cited from earlier work
[5] = system: gastric secretion; details: animals and man; cited from earlier work
[6] = target: T1, histamine H2-receptors; details: Black et al., isolated guinea pig right atria; cited from earlier work
[7] = system: agranulocytosis; details: in vivo; cited from earlier work
[8] = system: H2 receptors; details: cited from earlier work
[9] = system: peptic ulcer disease; details: clinical evaluation, Gray et al.; cited from earlier work
[10] = compared with cimetidine and Compound XII
[11] = ip, two hour pylorus ligated rat
[12] = iv, histamine-stimulated gastric fistula dog
[13] = 1.50 μMole/kg iv (BL-5949: one dog at this dose)

T1 sequence (P47747 whole entry): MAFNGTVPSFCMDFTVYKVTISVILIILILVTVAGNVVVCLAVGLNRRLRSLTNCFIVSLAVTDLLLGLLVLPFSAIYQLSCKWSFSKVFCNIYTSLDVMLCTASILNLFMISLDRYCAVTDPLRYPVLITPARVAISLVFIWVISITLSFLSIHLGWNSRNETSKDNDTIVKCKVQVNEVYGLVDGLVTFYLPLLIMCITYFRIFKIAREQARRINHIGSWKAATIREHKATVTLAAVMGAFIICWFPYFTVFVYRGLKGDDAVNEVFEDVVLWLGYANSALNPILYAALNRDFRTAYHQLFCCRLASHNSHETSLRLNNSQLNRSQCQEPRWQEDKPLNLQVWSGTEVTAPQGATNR

Histamine ED50 after test compound [1] [µg/mL] | Concentration-Response Curve Displacement Factor [1] | Structure (SMILES) | Percent Inhibition Acid Output ([2]; 2.5 μMole/kg ip) [%] | Percent Inhibition Acid Output ([2]; 5 μMole/kg ip) [%] | Percent Inhibition Acid Output ([2]; 20 μMole/kg ip) [%] | ED50 [2, 11] [µmol/kg] | Potency Ratio ([2]; ip) | Percent Inhibition Acid Output ([3]; 0.375 μMole/kg iv) [%] | Percent Inhibition Acid Output ([3]; 0.75 μMole/kg iv) [%] | ED50 [3, 12] [µmol/kg] | Potency Ratio ([3]; iv) | Inhibition of gastric secretion / oral activity (in words) [5] | Toxicity (agranulocytosis) [7] | H2 antagonist activity (in words) [8] | Percent Inhibition Acid Output ([2]; 10 μMole/kg ip) [%] | Percent Inhibition Acid Output ([2]; 40 μMole/kg ip) [%] | Percent Inhibition Acid Output [3, 13] [%] | also measured
14.05 | 46.83 | C#CCNC(=C[N+](=O)[O-])NCCSCc1[nH]cnc1C [BL-5949, 1-Nitro-2-(2-propynylamino)-2-{2-[(4-methyl-1H-imidazol-5-yl)methylthio]ethylamino}ethylene] | 33 | 51 | 87 | 4.62 | 2.26 | 62 | 68 | 0.24 | 5.56 | – | – | – | – | – | – | Potency as histamine H2-receptor antagonist in isolated guinea pig atria (in words) [1, 10]: more potent than either cimetidine or Compound XII; times as active as Compound XII ([1]; relative to Compound XII): about 2.7 times; Potency as inhibitor of gastric secretion in rats (in words) [2, 10]: more potent than either cimetidine or Compound XII; times more potent than Compound XII ([2]; relative to Compound XII, ip): 3.7 times; Percent Inhibition Acid Output ([3]; 0.0938 μMole/kg iv): 34%; Percent Inhibition Acid Output ([3]; 0.1875 μMole/kg iv): 46%; Potency as inhibitor of gastric secretion in dogs (in words) [3, 10]: more potent than either cimetidine or Compound XII; times more potent than Compound XII ([3]; relative to Compound XII, iv): 3.8 times
– | – | CNC(=S)NCCCCc1cnc[nH]1 [Burimamide] | – | – | – | – | – | – | – | – | – | inhibits gastric secretion in animals and man | – | – | – | – | – | oral absorption ([4]; oral): poor; Type of antagonism at histamine H2-receptors (in words) [6]: competitive antagonist of these receptors
4.30 | 17.92 | CNC(=C[N+](=O)[O-])NCCSCc1[nH]cnc1C [Compound XII] | – | – | 64 | 17.2 | 0.61 | 22 | 42 | 0.9 | 1.47 | – | – | – | 25 | 86 | 73 | –
– | – | NCCc1c[nH]cn1 [Histamine] | – | – | – | – | – | – | – | – | – | – | – | – | – | – | – | Histamine ED50 (control, before test compound) ([1]; control of Compound XII series, N=2, contractile rate): 0.24 µg/mL
– | – | CNC(=S)NCCSCc1[nH]cnc1C [Metiamide] | – | – | – | – | – | – | – | – | – | orally active in man | toxicity (agranulocytosis) | more potent than burimamide | – | – | – | –

Structure (SMILES) | Histamine ED50 after test compound [1] [µg/mL] | Concentration-Response Curve Displacement Factor [1] | Percent Inhibition Acid Output ([2]; 2.5 μMole/kg ip) [%] | Percent Inhibition Acid Output ([2]; 5 μMole/kg ip) [%] | Percent Inhibition Acid Output ([2]; 20 μMole/kg ip) [%] | ED50 [2, 11] [µmol/kg] | Potency Ratio ([2]; ip) | Percent Inhibition Acid Output ([3]; 0.375 μMole/kg iv) [%] | Percent Inhibition Acid Output ([3]; 0.75 μMole/kg iv) [%] | ED50 [3, 12] [µmol/kg] | Potency Ratio ([3]; iv) | Inhibition of gastric secretion / oral activity (in words) [5] | Toxicity (agranulocytosis) [7] | H2 antagonist activity (in words) [8] | Percent Inhibition Acid Output ([2]; 10 μMole/kg ip) [%] | Percent Inhibition Acid Output ([2]; 40 μMole/kg ip) [%] | Percent Inhibition Acid Output [3, 13] [%] | also measured
CNC(=NC#N)NCCSCc1[nH]cnc1C [Cimetidine] | 4.80 | 25.26 | 9 | 53 | 57 | – | – | – | 37 | – | – | – | without producing agranulocytosis | as effective an H2 antagonist as metiamide | 41 | 72 | 53 | half-life ([4]; in vivo): relatively short; ED50 ([2]; Rattus norvegicus, ip): 10.4 µmol/kg; Efficacy in the treatment of peptic ulcer disease (in words) [9]: effective therapeutic agent in the treatment of peptic ulcer disease; Percent Inhibition Acid Output ([3]; 3.0 μMole/kg iv): 73%; ED50 ([3]; iv): 1.33 µmol/kg
